Data published in ChEMBL document CHEMBL3886736, “Substituted sulfonamides useful as antiapoptotic Bcl inhibitors” (2016).
pIC50: −log10 of the molar value.

How the values were obtained:
[1] = biological target: Apoptosis regulator Bcl-2 (Homo sapiens, UniProt P10415); experiment: Fluorescence Polarization Assay (FPA): The assays were performed in black flat-bottom 384-well plates. The final assay volume was 50 μl prepared from additions of Gst-Bcl-2 (Bcl-2: GENBANK® Accession No. P10415), fluoresceinated 18-mer BIM peptide (NH2-[…]-[FAM]) (SEQ ID NO: 1), and test compounds in assay buffer consisting of 20 mM Sodium Phosphate, 1 mM EDTA, 50 mM NaCl, and 0.05% Pluronic Acid. The reaction was incubated at room temperature for 60 minutes and fluorescence polarization of the reaction was detected on the LJL Plate Reader. Inhibition data were calculated from mP values generated by the no protein control reactions for 100% inhibition and vehicle-only reactions for 0% inhibition. The final concentrations of reagents in the assay were 4.9 nM BCL-2, 5 nM fluoresceinated 18-mer BIM peptide and 1% DMSO.
Bcl-2-like protein 1 = Bcl-2-like protein 1 (Homo sapiens, UniProt Q07817); experiment: Fluorescence Resonance Energy Transfer Assay (FRET): The assays were performed in black flat-bottom 384-well plates. The final assay volume was 55 μl prepared from additions of Biotin-Bcl-xL (Bcl-xL: GENBANK® Accession No. Q07817), fluoresceinated 18-mer BIM peptide (NH2-[…]-[FAM]) (SEQ ID NO: 1), Streptavidin-Terbium FRET detection reagent, and test compounds in assay buffer consisting of 20 mM Sodium Phosphate, 1 mM EDTA, 50 mM NaCl, and 0.05% Pluronic Acid. The reaction was incubated at room temperature for 60 minutes. After 60 minutes, 5 μL of Streptavidin-Terbium FRET detection reagent (Perkin Elmer) was added to the reaction mixture and incubated at room temperature in the dark for 30 mins. The FRET signal generated by the reaction was detected on the Envision Plate Reader Inhibition data were calculated from FRET values generated by the no protein control reactions for 100% inhibition and vehicle-only reactions for 0% inhibition. The final concentration of reagents in the assay was 10 nM Bcl-xL, 5 nM fluo
Chain of Bcl-2-like protein 1 (Q07817 whole entry): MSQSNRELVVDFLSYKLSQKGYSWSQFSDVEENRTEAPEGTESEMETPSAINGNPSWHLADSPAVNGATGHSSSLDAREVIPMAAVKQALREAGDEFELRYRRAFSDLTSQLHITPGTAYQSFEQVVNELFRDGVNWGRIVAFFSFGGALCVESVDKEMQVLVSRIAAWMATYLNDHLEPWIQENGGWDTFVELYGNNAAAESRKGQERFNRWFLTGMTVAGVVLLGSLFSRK

Chain of Apoptosis regulator Bcl-2 (P10415 whole entry): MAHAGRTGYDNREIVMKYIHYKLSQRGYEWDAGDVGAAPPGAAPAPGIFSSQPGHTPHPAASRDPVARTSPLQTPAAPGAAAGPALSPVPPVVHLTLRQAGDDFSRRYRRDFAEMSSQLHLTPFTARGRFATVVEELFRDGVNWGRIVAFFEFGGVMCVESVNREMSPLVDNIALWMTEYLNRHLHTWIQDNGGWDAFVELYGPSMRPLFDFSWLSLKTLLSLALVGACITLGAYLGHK

Row | Compound | pIC50 [1] | pIC50 (Bcl-2-like protein 1)
1 | CCCCN(CCCC)C(=O)c1cn(CCN2CCOCC2)c(-c2ccc(C(=O)NS(=O)(=O)c3ccc4ccccc4c3)cc2C(=O)N2Cc3ccccc3C[C@H]2CO)n1 | 6.92 | 7.22
2 | Cc1c(Cl)c(C(=O)NCc2ccc(-c3ccc(CC(=O)O)cc3)cc2)nn1-c1ccc(C(=O)NS(=O)(=O)c2ccc3c(c2)CCN3Cc2ccc(Cl)c(Cl)c2)cc1C(=O)N1CCc2ccccc2C1 | 7.30 | 5.09
3 | CCCCN(CCCC)C(=O)c1cn(CCCN(C)C)c(-c2ccc(C(=O)NS(=O)(=O)c3ccc4ccccc4c3)cc2C(=O)N2CCc3ccccc3C2)n1 | 6.70 | 7.52
